Tests used:
Phospho-Akt(Ser473) [1] = experiment: Dose response in SKOV3 cells as determined by in-cell Western; assay type: cell-based; conditions: Homo sapiens, SK-OV-3
In short: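 SKOV3 cells treated with compound for 1 hr, then formaldehyde-fixed, permeabilised and stained overnight for phospho-Akt(Ser473) with anti-tubulin as a reference. Infrared secondary antibodies read at 680 and 800 nm channels by in-cell Western imaging.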

Phospho-Akt(Ser473) [2] = experiment: Dose response in SKOV3 cells as determined by Western blot; assay type: cell-based; conditions: Homo sapiens, SK-OV-3, 1 hr, Phospho-Akt normalized to total Akt, read-out: Immunoblot
In short: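 SKOV3 cells in DMEM/10% FBS were treated with compound in 0.1% DMSO for 1 hr, then lysed. 50 ug protein was immunoblotted for Phospho-Akt(Ser473) and total Akt with fluorescent read-out. Phospho-Akt was normalized to total Akt and expressed as percent of untreated signal.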

PI3Kβ (p110β/p85α) = biological target: T1, PI3Kβ (p110β/p85α) (Homo sapiens, UniProt P42338); experiment: HTRF assay, potency against active PI3Kβ; assay type: biochemical; conditions: [ATP]=50 μM, [di-C8-PIP2]=10 μM, 30 min pre-incubation, read-out: PI3Kβ Inhibition
T1 construct: purchased BPS Bioscience (San Diego, Calif.) or Millipore (Billerica, Mass.)
T1 sequence (P42338 whole entry): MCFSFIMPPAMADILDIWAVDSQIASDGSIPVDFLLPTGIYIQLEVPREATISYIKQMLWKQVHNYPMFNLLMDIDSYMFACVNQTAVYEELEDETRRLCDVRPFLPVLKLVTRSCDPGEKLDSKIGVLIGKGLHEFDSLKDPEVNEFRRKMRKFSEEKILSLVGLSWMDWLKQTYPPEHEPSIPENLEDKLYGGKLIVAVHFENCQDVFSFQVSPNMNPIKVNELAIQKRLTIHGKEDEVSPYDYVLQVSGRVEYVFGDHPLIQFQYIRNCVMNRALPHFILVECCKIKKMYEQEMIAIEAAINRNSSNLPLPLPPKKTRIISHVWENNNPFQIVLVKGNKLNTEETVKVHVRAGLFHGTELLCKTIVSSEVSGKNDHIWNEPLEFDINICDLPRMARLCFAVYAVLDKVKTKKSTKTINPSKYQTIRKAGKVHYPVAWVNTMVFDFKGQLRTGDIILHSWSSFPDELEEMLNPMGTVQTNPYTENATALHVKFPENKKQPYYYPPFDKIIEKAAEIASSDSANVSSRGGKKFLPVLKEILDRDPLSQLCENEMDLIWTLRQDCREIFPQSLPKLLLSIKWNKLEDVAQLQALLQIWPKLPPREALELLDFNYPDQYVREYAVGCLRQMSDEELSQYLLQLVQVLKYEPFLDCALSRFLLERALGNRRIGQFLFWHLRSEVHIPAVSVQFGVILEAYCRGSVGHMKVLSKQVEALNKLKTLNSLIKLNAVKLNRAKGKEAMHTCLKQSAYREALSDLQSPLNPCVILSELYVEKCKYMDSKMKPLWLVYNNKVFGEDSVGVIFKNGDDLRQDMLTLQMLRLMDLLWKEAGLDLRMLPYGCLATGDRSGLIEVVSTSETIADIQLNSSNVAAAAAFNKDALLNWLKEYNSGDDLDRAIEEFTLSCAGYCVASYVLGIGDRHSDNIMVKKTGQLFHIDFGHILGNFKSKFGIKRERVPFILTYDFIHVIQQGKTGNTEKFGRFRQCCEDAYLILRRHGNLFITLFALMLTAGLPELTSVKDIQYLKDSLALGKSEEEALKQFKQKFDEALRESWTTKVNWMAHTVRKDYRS
T1 sequence (P27986 whole entry partner): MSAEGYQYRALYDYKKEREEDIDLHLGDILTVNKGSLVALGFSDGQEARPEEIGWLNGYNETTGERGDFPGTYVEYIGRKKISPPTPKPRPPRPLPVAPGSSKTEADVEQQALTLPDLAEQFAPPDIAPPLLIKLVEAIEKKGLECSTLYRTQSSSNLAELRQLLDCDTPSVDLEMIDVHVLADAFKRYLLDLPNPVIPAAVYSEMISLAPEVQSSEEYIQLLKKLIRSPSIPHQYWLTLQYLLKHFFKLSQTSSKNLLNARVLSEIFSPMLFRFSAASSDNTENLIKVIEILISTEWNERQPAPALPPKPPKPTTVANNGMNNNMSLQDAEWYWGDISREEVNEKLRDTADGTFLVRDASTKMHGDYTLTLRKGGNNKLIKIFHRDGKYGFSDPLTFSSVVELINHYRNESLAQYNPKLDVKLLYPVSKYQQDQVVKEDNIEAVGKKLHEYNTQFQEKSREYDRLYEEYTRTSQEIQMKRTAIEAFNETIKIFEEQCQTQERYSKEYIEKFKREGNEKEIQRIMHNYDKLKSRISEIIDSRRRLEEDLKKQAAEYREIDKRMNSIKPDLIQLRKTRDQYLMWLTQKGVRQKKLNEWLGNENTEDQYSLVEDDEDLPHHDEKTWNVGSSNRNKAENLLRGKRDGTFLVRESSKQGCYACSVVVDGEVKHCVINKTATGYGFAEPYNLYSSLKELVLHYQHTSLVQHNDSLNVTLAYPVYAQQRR
In short: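 IC50 came from a variable-slope fit of % inhibition, calculated from the HTRF emission ratio relative to wells with and without enzyme. Reactions with the active enzyme complex ran 30-60 minutes at 25 °C after ATP addition before stop and detection reagents.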

PI3Kα = PI3Kα (Homo sapiens, UniProt P42336); experiment: Mass spectrometry of intact PI3Kα (Johns Hopkins), 3 hr incubation; assay type: binding; parameters: Johns Hopkins; conditions: 10× fold excess of compound, MALDI
Chain of PI3Kα (P42336 whole entry): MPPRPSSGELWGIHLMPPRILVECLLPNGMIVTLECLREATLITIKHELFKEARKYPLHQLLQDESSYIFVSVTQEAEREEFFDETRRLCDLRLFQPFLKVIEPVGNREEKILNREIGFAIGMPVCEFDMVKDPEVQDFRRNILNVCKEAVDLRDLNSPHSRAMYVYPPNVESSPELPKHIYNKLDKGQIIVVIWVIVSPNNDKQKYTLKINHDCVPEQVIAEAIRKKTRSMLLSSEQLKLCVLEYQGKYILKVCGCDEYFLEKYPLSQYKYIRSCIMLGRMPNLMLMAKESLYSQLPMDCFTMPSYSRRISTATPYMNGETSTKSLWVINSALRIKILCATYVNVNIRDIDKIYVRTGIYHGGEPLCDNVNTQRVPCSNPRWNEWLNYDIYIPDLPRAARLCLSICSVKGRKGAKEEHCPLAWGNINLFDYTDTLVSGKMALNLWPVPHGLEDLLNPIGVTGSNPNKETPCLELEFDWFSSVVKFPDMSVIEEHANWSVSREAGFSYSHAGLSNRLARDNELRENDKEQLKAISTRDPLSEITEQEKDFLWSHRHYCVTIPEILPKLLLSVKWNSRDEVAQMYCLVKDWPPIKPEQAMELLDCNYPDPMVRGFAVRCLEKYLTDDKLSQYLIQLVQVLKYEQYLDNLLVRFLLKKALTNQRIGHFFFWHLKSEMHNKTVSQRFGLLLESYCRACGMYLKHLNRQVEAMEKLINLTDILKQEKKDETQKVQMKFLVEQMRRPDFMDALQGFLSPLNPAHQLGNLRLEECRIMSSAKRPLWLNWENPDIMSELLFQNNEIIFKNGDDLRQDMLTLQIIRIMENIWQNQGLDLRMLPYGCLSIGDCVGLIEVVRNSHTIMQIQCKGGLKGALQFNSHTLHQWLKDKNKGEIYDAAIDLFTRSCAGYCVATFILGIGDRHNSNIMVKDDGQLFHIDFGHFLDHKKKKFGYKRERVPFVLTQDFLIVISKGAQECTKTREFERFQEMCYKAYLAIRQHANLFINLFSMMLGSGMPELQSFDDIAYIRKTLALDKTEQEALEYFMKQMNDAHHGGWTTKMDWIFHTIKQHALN
Chain of PI3Kα (P27986 322-600 partner limits assumed): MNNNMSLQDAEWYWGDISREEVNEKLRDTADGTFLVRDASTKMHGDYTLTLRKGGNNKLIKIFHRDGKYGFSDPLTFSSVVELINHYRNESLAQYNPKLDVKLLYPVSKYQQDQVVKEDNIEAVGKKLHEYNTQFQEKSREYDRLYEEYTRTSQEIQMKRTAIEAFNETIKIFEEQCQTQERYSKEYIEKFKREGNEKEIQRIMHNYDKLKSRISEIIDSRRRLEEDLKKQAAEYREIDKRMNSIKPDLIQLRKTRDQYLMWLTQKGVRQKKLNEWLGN
Protocol: Mass Spectrometry for PI3K
Intact PI3Kα (Johns Hopkins) was incubated for 3 hr at a 10× fold excess of II-a-45 or II-a-49 to protein. Aliquots (3 μL) of the samples were diluted with 10 μL of 0.1% TFA prior to micro C4 ZipTipping directly onto the MALDI target using Sinapinic acid as the desorption matrix (10 mg/ml in 0.1% TFA:Acetonitrile 50:50).

SK-OV-3 cells = experiment: SK-OV-3 cell proliferation assay; assay type: cell-based; conditions: Homo sapiens; SK-OV-3 proliferation, 72 hours, Cell Titer Glo
Protocol: SK-OV-3 Cell Proliferation Assay
For the SK-OV-3 proliferation Assay, 5000 cells per well were plated in Growth Media (DMEM, 10% FBS, 1% 1-glutamine, 1% penicillin/streptomycin) in 96 well plates. The following day, compounds were added to duplicate wells at concentrations of 10 uM and 3-fold dilutions down to 40 nM. The plates were returned to the incubator for 72 hours and then the assays were developed using Cell Titer Glo (Promega, Madison, Wis.) according to manufacturer's instructions.

[3] = SKOV3 cells, 1 hr, read-out: pAKT Inhibition in cell Western

SMILES | EC50 (Phospho-Akt(Ser473) [1]; [3]) [nM] | EC50 (Phospho-Akt(Ser473) [1]; Table 19, assay not given, classes agree with Table 23, read-out: EC50 pAkt^Ser473) [nM] | EC50 (Phospho-Akt(Ser473) [2]) [nM] | IC50 (PI3Kβ (p110β/p85α)) [nM] | covalent modification of PI3Kα (PI3Kα) | EC50 (SK-OV-3 cells) [nM]
CC(C)=CC(=O)CCC(=O)N1CCN(Cc2cc3nc(-c4cccc5[nH]ncc45)nc(N4CCOCC4)c3s2)CC1 [II-a-3, 1-(4-((2-(1H-indazol-4-yl)-4-morpholinothieno[3,2-d]pyrimidin-6-yl)methyl)piperazin-1-yl)-6-methylhept-5-ene-1,4-dione] | ≤ 10 | ≤ 10 | 10 to 100 | > 1000 |  | 
C/C=C/C(=O)CCC(=O)N1CCN(Cc2cc3nc(-c4cccc5[nH]ncc45)nc(N4CCOCC4)c3s2)CC1 [II-a-36, (E)-1-(4-((2-(1H-indazol-4-yl)-4-morpholinothieno[3,2-d]pyrimidin-6-yl)methyl)piperazin-1-yl)hept-5-ene-1,4-dione] | 100 to 1000 |  | 10 to 100 | > 1000 | completely modify | 100 to 1000

— patent publication US20110230476A1, “PI3 KINASE INHIBITORS AND USES THEREOF” (AVILA THERAPEUTICS, INC., priority 2009, published 2011)
